ChEMBL document CHEMBL3885861, “Open TG-GATES”

Species: Rattus norvegicus
Experiment: Open TG-GATES - Regimen: Single
Type: toxicity, organism-based, Sprague-Dawley
Set-up: regimen Single, gender Male, age 6 weeks
Settings: in vivo, po, 300 mg/kg, route gavage, dose level Low; for APTT / Bas / Eos / Fbg / Hb / Ht / Lym / MCH / MCHC / MCV / Mono / Neu / PT / Plat / RBC / Ret / WBC: tissue Blood; for KIDNEY_L / KIDNEY_R / KIDNEY_TOTAL: tissue Kidney; for LIVER: tissue Liver; for A/G / ALP / ALT / AST / BUN / CRE / Ca / Cl / DBIL / GLC / IP / K / LDH / Na / PL / RALB / TBIL / TC / TG / TP / gamma-GTP: tissue Plasma

`COc1ccc(O)c(C(C)(C)C)c1.COc1ccc(O)cc1C(C)(C)C` [BUTYLATED HYDROXYANISOLE] was tested, and the TERMINAL_BW (3 h) was 204.6 g, the APTT (3 h) was 16.4 s and the Bas (3 h) was 0.2%. It also gave an Eos (3 h) of 0.6%, a Fbg (3 h) of 281.2 mg/dL and a Hb (3 h) of 13.8 g/dL. For the same compound, the Ht (3 h) was 39.9%, the Lym (3 h) was 75% and the MCH (3 h) was 21.7 pg. For the same compound, the MCHC (3 h) was 34.5%, the MCV (3 h) was 63.1 fL and the Mono (3 h) was 2.5%. It also gave a Neu (3 h) of 20.7%, a PT (3 h) of 12 s and a Plat (3 h) of 133.9 x10_4/uL. For the same compound, the RBC (3 h) was 633.4 x10_4/ul, the Ret (3 h) was 8.1% and the WBC (3 h) was 97.5 x10_2/uL. For the same compound, the KIDNEY_L (3 h) was 0.9 g, the KIDNEY_R (3 h) was 0.9 g and the KIDNEY_TOTAL (3 h) was 1.8 g. It also gave an LIVER (3 h) of 8.5 g, an A/G (3 h) of 0.8 and an ALP (3 h) of 1752.8 IU/L. For the same compound, the ALT (3 h) was 41.8 IU/L, the AST (3 h) was 75.4 IU/L and the BUN (3 h) was 10.2 mg/dL. The CRE (3 h) was 0.2 mg/dL, the Ca (3 h) was 11.3 mg/dL and the Cl (3 h) was 107.8 meq/L. It also gave a DBIL (3 h) of 0.052 mg/dL, a GLC (3 h) of 173.2 mg/dL and an IP (3 h) of 9.1 mg/dL. For the same compound, the K (3 h) was 3.9 meq/L, the LDH (3 h) was 75.6 IU/L and the Na (3 h) was 141.8 meq/L. The PL (3 h) was 154.4 mg/dL, the RALB (3 h) was 2.7 g/dL and the TBIL (3 h) was 0.082 mg/dL. The TC (3 h) was 80.8 mg/dL, the TG (3 h) was 149.4 mg/dL and the TP (3 h) was 5.8 g/dL. It also gave a gamma-GTP (3 h) of 1 IU/L, a TERMINAL_BW (6 h) of 202.1 g and an APTT (6 h) of 16.2 s. It also gave a Bas (6 h) of 0.2%, an Eos (6 h) of 0.7% and a Fbg (6 h) of 257.2 mg/dL. It also gave a Hb (6 h) of 13.3 g/dL, a Ht (6 h) of 39.1% and a Lym (6 h) of 72%. It also gave an MCH (6 h) of 21.2 pg, an MCHC (6 h) of 33.9% and an MCV (6 h) of 62.4 fL. It also gave a Mono (6 h) of 2.5%, a Neu (6 h) of 23.7% and a PT (6 h) of 12.3 s. It also gave a Plat (6 h) of 131.2 x10_4/uL, an RBC (6 h) of 627.4 x10_4/ul and a Ret (6 h) of 7.7%. For the same compound, the WBC (6 h) was 91.5 x10_2/uL, the KIDNEY_L (6 h) was 0.9 g and the KIDNEY_R (6 h) was 0.9 g. It also gave a KIDNEY_TOTAL (6 h) of 1.8 g, an LIVER (6 h) of 7.9 g and an A/G (6 h) of 0.9. For the same compound, the ALP (6 h) was 1829.2 IU/L, the ALT (6 h) was 38 IU/L and the AST (6 h) was 72.8 IU/L. It also gave a BUN (6 h) of 9.4 mg/dL, a CRE (6 h) of 0.2 mg/dL and a Ca (6 h) of 11.1 mg/dL. For the same compound, the Cl (6 h) was 107.8 meq/L, the DBIL (6 h) was 0.03 mg/dL and the GLC (6 h) was 172.4 mg/dL. For the same compound, the IP (6 h) was 10.3 mg/dL, the K (6 h) was 4.2 meq/L and the LDH (6 h) was 60.2 IU/L. It also gave a Na (6 h) of 143.2 meq/L, a PL (6 h) of 134.4 mg/dL and an RALB (6 h) of 2.6 g/dL. It also gave a TBIL (6 h) of 0.074 mg/dL, a TC (6 h) of 75 mg/dL and a TG (6 h) of 65.8 mg/dL. It also gave a TP (6 h) of 5.7 g/dL, a gamma-GTP (6 h) of 1.4 IU/L and a TERMINAL_BW (9 h) of 199.4 g. For the same compound, the APTT (9 h) was 16.9 s, the Bas (9 h) was 0.2% and the Eos (9 h) was 0.7%. The Fbg (9 h) was 273.6 mg/dL, the Hb (9 h) was 13.4 g/dL and the Ht (9 h) was 39.1%. For the same compound, the Lym (9 h) was 76.3%, the MCH (9 h) was 20.7 pg and the MCHC (9 h) was 34.3%. For the same compound, the MCV (9 h) was 60.5 fL, the Mono (9 h) was 1.9% and the Neu (9 h) was 20.1%. For the same compound, the PT (9 h) was 13.1 s, the Plat (9 h) was 145.3 x10_4/uL and the RBC (9 h) was 647.4 x10_4/ul. The Ret (9 h) was 7.4%, the WBC (9 h) was 69.4 x10_2/uL and the KIDNEY_L (9 h) was 0.9 g. It also gave a KIDNEY_R (9 h) of 0.9 g, a KIDNEY_TOTAL (9 h) of 1.7 g and an LIVER (9 h) of 7.5 g. It also gave an A/G (9 h) of 0.8, an ALP (9 h) of 1688.6 IU/L and an ALT (9 h) of 30.6 IU/L. The AST (9 h) was 66.4 IU/L, the BUN (9 h) was 8.2 mg/dL and the CRE (9 h) was 0.2 mg/dL. It also gave a Ca (9 h) of 10.8 mg/dL, a Cl (9 h) of 108 meq/L and a DBIL (9 h) of 0.026 mg/dL. For the same compound, the GLC (9 h) was 163.8 mg/dL, the IP (9 h) was 10.1 mg/dL and the K (9 h) was 4 meq/L. For the same compound, the LDH (9 h) was 48.4 IU/L, the Na (9 h) was 142.8 meq/L and the PL (9 h) was 134.6 mg/dL. It also gave an RALB (9 h) of 2.6 g/dL, a TBIL (9 h) of 0.088 mg/dL and a TC (9 h) of 77.4 mg/dL. It also gave a TG (9 h) of 66 mg/dL, a TP (9 h) of 5.6 g/dL and a gamma-GTP (9 h) of 1.4 IU/L. The TERMINAL_BW (24 h) was 215.1 g, the APTT (24 h) was 15.4 s and the Bas (24 h) was 0.3%. It also gave an Eos (24 h) of 0.7%, a Fbg (24 h) of 256.6 mg/dL and a Hb (24 h) of 13 g/dL. It also gave a Ht (24 h) of 38%, a Lym (24 h) of 82.1% and an MCH (24 h) of 21.3 pg. For the same compound, the MCHC (24 h) was 34.1%, the MCV (24 h) was 62.3 fL and the Mono (24 h) was 2.3%. The Neu (24 h) was 13.9%, the PT (24 h) was 12 s and the Plat (24 h) was 142.8 x10_4/uL. For the same compound, the RBC (24 h) was 610.6 x10_4/ul, the Ret (24 h) was 6.9% and the WBC (24 h) was 97.1 x10_2/uL. It also gave a KIDNEY_L (24 h) of 0.9 g, a KIDNEY_R (24 h) of 0.9 g and a KIDNEY_TOTAL (24 h) of 1.8 g. It also gave an LIVER (24 h) of 9.6 g, an A/G (24 h) of 0.9 and an ALP (24 h) of 1667 IU/L. The ALT (24 h) was 47.2 IU/L, the AST (24 h) was 79 IU/L and the BUN (24 h) was 15 mg/dL. The CRE (24 h) was 0.2 mg/dL, the Ca (24 h) was 11.4 mg/dL and the Cl (24 h) was 106.4 meq/L. The DBIL (24 h) was 0.028 mg/dL, the GLC (24 h) was 166.4 mg/dL and the IP (24 h) was 7.8 mg/dL. The K (24 h) was 4.2 meq/L, the LDH (24 h) was 63 IU/L and the Na (24 h) was 143.2 meq/L. The PL (24 h) was 135.2 mg/dL, the RALB (24 h) was 2.7 g/dL and the TBIL (24 h) was 0.078 mg/dL. The TC (24 h) was 78.2 mg/dL, the TG (24 h) was 110.2 mg/dL and the TP (24 h) was 5.7 g/dL. The gamma-GTP (24 h) was 1 IU/L.
